# Assay results: patent US11318232B2, “Compositions and methods for delivering drugs to a vessel wall” (Interface Biologics, Inc., priority 2018, dated 2022)
# Tested on: Rat Aortic Smooth Muscle Cells (RASMCs)
# Conditions: drug spiked directly into growth media, 20 ng/mL
smiles,measurement,value
CO[C@H]1C[C@@H]2CC[C@@H](C)[C@@](O)(O2)C(=O)C(=O)N2CCCC[C@H]2C(=O)O[C@H]([C@H](C)C[C@@H]2CC[C@@H](O)[C@H](OC)C2)CC(=O)[C@H](C)/C=C(\C)[C@@H](O)[C@@H](OC)C(=O)[C@H](C)C[C@H](C)/C=C/C=C/C=C/1C [sirolimus],Normalized cell growth at 72 hours,0.463±0.035
